Where two headings read alike, the source gives them in different places.
Experiments:
MOLM13 cells (FLT3-ITD) = test: Growth inhibition IC50 in FLT3-ITD AML cell line MOLM13; type: cell-based; settings: Homo sapiens
[1] = system: U118MG cells (FIG-ROS1 gene fusion); test: Growth inhibition IC50 in ROS1 mutant glioblastoma cell line U118MG (72 hours); type: cell-based; settings: Homo sapiens, U-118-MG, read-out: Half Inhibitory Concentration (IC50) Mean
[2] = system: SW48 cell line (EGFR G719S); test: Growth inhibition IC50 in EGFR G719S colorectal cancer cell line SW48; type: cell-based; settings: Homo sapiens, CTG, n = 2, read-out: Half Inhibitory Concentration (IC50) Mean
[3] = system: NCI-H3122 (EML4-ALK, V1) cells; test: Growth inhibition IC50 in lung cancer H3122 cells (Cell Titer Blue / Cell Titer Glo); settings: Homo sapiens, NCI-H3122, H3122 cells
SR (NPM-ALK) cells = test: Growth inhibition IC50 in ALCL SR cells (CCK8/WST, 72 hours); type: cell-based; settings: SR cells, WST
[4] = target: T1, ALK protein in H3122 (EML4-ALK) cells (Homo sapiens, UniProt Q9UM73); test: Western blot of ALK protein level (degradation, DC50), ALK phosphorylation and downstream signaling in H3122 cells; type: cell-based; settings: ALK protein degradation in H3122 cells
T1 construct: EML4 (Echinoderm microtubule-associated protein-like 4, Q9HC35) fusion partner, variant 1; host or cells: NCI-H3122 lung adenocarcinoma cells; the other entry of the earlier key: EML4 (Q9HC35, Echinoderm microtubule-associated protein-like 4)

[5] = target: T2, ALK protein in SR (NPM-ALK) cells (Homo sapiens, UniProt Q9UM73); test: Western blot of ALK protein level (degradation, DC50), ALK phosphorylation and downstream signaling in SR cells; type: cell-based; settings: for DC50: ALK protein degradation in SR cells
T2 construct: NPM (nucleophosmin, NPM1, P06748) fusion partner; host or cells: SR (ALCL) cells; the other entry of the earlier key: NPM1 (P06748, Nucleophosmin)

[6] = system: PC9 (EGFR, exon 19 del) cells; test: Growth inhibition IC50 in EGFR mutant lung adenocarcinoma PC9 cells; type: cell-based; settings: Homo sapiens, PC-9; PC9 cells, CTB, n ≥ 3; read-out: Half Inhibitory Concentration (IC50) Mean
[7] = system: PC9Brc1 (EGFR, exon 19 del+T790M) cells; test: Growth inhibition IC50 in EGFR mutant lung cancer PC9Brc1 cells; type: cell-based; settings: CTB, n ≥ 3, read-out: Half Inhibitory Concentration (IC50) Mean
[8] = MOLM-13, read-out: Half Inhibitory Concentration (IC50) Mean
[9] = Ceritinib based ALK PROTAD compounds (Table 5)
[10] = 72 h, Brigatinib-based PROTAD molecules (Table 3)

T2 sequence (Q9UM73 with tags, fused parts or gaps): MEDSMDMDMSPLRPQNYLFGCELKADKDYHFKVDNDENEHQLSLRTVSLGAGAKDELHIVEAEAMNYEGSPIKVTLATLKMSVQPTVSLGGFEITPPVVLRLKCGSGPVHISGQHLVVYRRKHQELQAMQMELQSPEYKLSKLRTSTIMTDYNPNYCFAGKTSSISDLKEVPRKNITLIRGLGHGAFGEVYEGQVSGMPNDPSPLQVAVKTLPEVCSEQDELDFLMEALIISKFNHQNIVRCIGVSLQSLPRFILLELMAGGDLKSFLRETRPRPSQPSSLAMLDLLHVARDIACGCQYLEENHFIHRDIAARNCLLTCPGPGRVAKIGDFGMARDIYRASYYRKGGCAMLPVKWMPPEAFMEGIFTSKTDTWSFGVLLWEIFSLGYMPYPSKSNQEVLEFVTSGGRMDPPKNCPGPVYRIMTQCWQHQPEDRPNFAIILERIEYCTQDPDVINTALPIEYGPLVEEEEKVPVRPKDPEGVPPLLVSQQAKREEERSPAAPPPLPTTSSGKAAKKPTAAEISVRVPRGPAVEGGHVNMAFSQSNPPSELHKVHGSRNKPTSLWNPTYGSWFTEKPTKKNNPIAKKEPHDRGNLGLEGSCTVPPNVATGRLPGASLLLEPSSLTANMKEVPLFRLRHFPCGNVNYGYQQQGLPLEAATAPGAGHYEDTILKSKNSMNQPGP
T1 sequence (Q9UM73 with tags, fused parts or gaps): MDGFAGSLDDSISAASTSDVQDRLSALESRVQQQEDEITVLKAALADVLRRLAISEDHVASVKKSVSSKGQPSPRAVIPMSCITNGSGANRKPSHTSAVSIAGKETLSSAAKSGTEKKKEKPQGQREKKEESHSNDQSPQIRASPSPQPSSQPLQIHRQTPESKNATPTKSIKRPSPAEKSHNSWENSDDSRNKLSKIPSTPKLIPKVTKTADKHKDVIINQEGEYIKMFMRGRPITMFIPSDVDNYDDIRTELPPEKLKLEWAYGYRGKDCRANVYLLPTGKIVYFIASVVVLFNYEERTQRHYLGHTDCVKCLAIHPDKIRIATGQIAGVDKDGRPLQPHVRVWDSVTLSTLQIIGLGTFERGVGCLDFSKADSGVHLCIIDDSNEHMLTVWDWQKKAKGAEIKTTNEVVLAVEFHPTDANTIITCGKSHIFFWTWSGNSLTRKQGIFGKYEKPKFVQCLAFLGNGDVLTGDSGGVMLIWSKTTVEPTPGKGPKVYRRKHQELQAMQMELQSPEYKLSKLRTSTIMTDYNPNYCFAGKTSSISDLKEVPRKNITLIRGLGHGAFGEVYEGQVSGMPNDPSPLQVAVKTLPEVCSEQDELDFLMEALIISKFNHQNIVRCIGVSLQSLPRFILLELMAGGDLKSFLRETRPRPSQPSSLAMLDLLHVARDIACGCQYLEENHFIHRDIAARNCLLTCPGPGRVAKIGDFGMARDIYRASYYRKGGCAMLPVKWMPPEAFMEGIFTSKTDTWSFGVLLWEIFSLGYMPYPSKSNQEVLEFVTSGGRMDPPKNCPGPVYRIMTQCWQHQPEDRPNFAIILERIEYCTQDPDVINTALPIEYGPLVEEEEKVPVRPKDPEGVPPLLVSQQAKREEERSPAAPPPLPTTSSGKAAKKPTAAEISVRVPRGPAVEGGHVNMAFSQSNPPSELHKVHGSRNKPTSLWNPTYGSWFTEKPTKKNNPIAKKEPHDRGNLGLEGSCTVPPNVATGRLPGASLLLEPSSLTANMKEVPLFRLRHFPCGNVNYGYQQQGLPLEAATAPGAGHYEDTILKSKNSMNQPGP

IC50 ([3]; CTB (Cell Titer Blue)) [nM] | DC50 [4] [nM] | DC50 [5] [nM] | IC50 [6] [nM] | IC50 [7] [nM] | SMILES | IC50 (SR (NPM-ALK) cells; [10]) [nM] | also measured
 | 1 to 10 | 0.1 to 0.5 | 434 | 2440 | COc1cc(N2CCC(N3CCN(C(=O)CCCCNc4cccc5c4C(=O)N(C4CCC(=O)NC4=O)C5=O)CC3)CC2)ccc1Nc1ncc(Cl)c(Nc2ccccc2P(C)(C)=O)n1 (stereo not shown) [SIAIS164021, 4-((5-(4-(1-(4-((5-chloro-4-((2-(dimethylphosphoryl)phenyl)amino)pyrimidin-2-yl)amino)-3-methoxyphenyl)piperidin-4-yl)piperazin-1-yl)-5-oxopentyl)amino)-2-(2,6-dioxopiperidin-3-yl)isoindoline-1,3-dione] | 7.4 ± 5 | concentration at which ALK proteins were degraded ([5]; SR cells, western blot): 1 nM
 | 1 to 10 | 1 to 10 | 233 | 696 | COc1cc(N2CCC(N3CCN(C(=O)CCCCCNc4cccc5c4C(=O)N(C4CCC(=O)NC4=O)C5=O)CC3)CC2)ccc1Nc1ncc(Cl)c(Nc2ccccc2P(C)(C)=O)n1 (stereo not shown) [SIAIS164022, 4-((6-(4-(1-(4-((5-chloro-4-((2-(dimethylphosphoryl)phenyl)amino)pyrimidin-2-yl)amino)-3-methoxyphenyl)piperidin-4-yl)piperazin-1-yl)-6-oxohexyl)amino)-2-(2,6-dioxopiperidin-3-yl)isoindoline-1,3-dione] | 3.3 ± 2.2 | 
 | 0.02 to 1 | 1 to 10 | 321 | 1280 | COc1cc(N2CCC(NC(=O)CCCCCCC(=O)N[C@H](C(=O)N3C[C@H](O)C[C@H]3C(=O)NCc3ccc(-c4scnc4C)cc3)C(C)(C)C)CC2)ccc1Nc1ncc(Cl)c(Nc2ccccc2P(C)(C)=O)n1 [SIAIS164147, N1-(1-(4-((5-chloro-4-((2-(dimethylphosphoryl)phenyl)amino)pyrimidin-2-yl)amino)-3-methoxyphenyl)piperidin-4-yl)-N8-((S)-1-((2S,4R)-4-hydroxy-2-((4-(4-methylthiazol-5-yl)benzyl)carbamoyl)pyrrolidin-1-yl)-3,3-dimethyl-1-oxobutan-2-yl)octanediamide] | 2 ± 1.2 | 
 | 1 to 50 | 1 to 10 | 153 | 1340 | COc1cc(N2CCC(NC(=O)CCCCCCCC(=O)N[C@H](C(=O)N3C[C@H](O)C[C@H]3C(=O)NCc3ccc(-c4scnc4C)cc3)C(C)(C)C)CC2)ccc1Nc1ncc(Cl)c(Nc2ccccc2P(C)(C)=O)n1 [SIAIS164148] | 1.5 ± 0.8 | 
 |  | 1 to 10 | 187 | 988 | COc1cc(N2CCC(NC(=O)CCCCCCCCC(=O)N[C@H](C(=O)N3C[C@H](O)C[C@H]3C(=O)NCc3ccc(-c4scnc4C)cc3)C(C)(C)C)CC2)ccc1Nc1ncc(Cl)c(Nc2ccccc2P(C)(C)=O)n1 [SIAIS164149, N1-(1-(4-((5-chloro-4-((2-(dimethylphosphoryl)phenyl)amino)pyrimidin-2-yl)amino)-3-methoxyphenyl)piperidin-4-yl)-N10-((S)-1-((2S,4R)-4-hydroxy-2-((4-(4-methylthiazol-5-yl)benzyl)carbamoyl)pyrrolidin-1-yl)-3,3-dimethyl-1-oxobutan-2-yl)decanediamide] | 2.3 ± 2 | DC50 (nM)) in H3122 [4]: 0.02 to 20 nM

Further lines, the molecule ahead of its results:

SMILES | IC50 ([3]; CTB (Cell Titer Blue)) [nM] | DC50 [4] [nM] | DC50 [5] [nM] | IC50 [6] [nM] | IC50 [7] [nM] | IC50 (SR (NPM-ALK) cells; [10]) [nM] | also measured
CCc1cc2c(cc1N1CCC(N3CCOCC3)CC1)C(C)(C)c1[nH]c3cc(C#N)ccc3c1C2=O [Alectinib, reference compound] |  |  |  |  |  |  | IC50 (MOLM13 cells (FLT3-ITD); [8]): 255 nM; IC50 ([1]; 72 h): 1480 nM; IC50 [2]: 800 nM
C[C@@H](Oc1cc(-c2cnn(C3CCNCC3)c2)cnc1N)c1c(Cl)ccc(F)c1Cl [Crizotinib, reference compound] |  |  |  |  |  |  | IC50 (MOLM13 cells (FLT3-ITD); [8]): 291 nM; IC50 ([1]; 72 h): 2570 nM
Cc1cc(Nc2ncc(Cl)c(Nc3ccccc3S(=O)(=O)C(C)C)n2)c(OC(C)C)cc1C1CCN(C(=O)CCOCCOCCOCCNc2cccc3c2C(=O)N(C2CCC(=O)NC2=O)C3=O)CC1 (stereo not shown) [SIAIS151028, 4-((2-(2-(2-(3-(4-(4-((5-chloro-4-((2-(isopropylsulfonyl)phenyl)amino)pyrimidin-2-yl)amino)-5-isopropoxy-2-methylphenyl)piperidin-1-yl)-3-oxopropoxy)ethoxy)ethoxy)ethyl)amino)-2-(2,6-dioxopiperidin-3-yl)isoindoline-1,3-dione] | 6 | 20 to 100 |  |  |  |  | IC50 ([3]; CTG (Cell Titer Glo)): 80 nM; IC50 (SR (NPM-ALK) cells; [9]): 38 nM
Cc1cc(Nc2ncc(Cl)c(Nc3ccccc3S(=O)(=O)C(C)C)n2)c(OC(C)C)cc1C1CCN(C(=O)CCOCCNc2cccc3c2C(=O)N(C2CCC(=O)NC2=O)C3=O)CC1 (stereo not shown) [SIAIS151031, 4-((2-(3-(4-(4-((5-chloro-4-((2-(isopropylsulfonyl)phenyl)amino)pyrimidin-2-yl)amino)-5-isopropoxy-2-methylphenyl)piperidin-1-yl)-3-oxopropoxy)ethyl)amino)-2-(2,6-dioxopiperidin-3-yl)isoindoline-1,3-dione] | 7 | 100 to 500 |  |  |  |  | IC50 ([3]; CTG (Cell Titer Glo)): 81 nM; IC50 (SR (NPM-ALK) cells; [9]): 85 nM
Cc1cc(Nc2ncc(Cl)c(Nc3ccccc3S(=O)(=O)C(C)C)n2)c(OC(C)C)cc1C1CCN(C(=O)CCCNc2cccc3c2C(=O)N(C2CCC(=O)NC2=O)C3=O)CC1 (stereo not shown) [SIAIS151035, 4-((4-(4-(4-((5-chloro-4-((2-(isopropylsulfonyl)phenyl)amino)pyrimidin-2-yl)amino)-5-isopropoxy-2-methylphenyl)piperidin-1-yl)-4-oxobutyl)amino)-2-(2,6-dioxopiperidin-3-yl)isoindoline-1,3-dione] | 33 | 50 to 100 |  |  |  |  | 
Cc1cc(Nc2ncc(Cl)c(Nc3ccccc3S(=O)(=O)C(C)C)n2)c(OC(C)C)cc1C1CCN(C(=O)CNc2cccc3c2C(=O)N(C2CCC(=O)NC2=O)C3=O)CC1 (stereo not shown) [SIAIS151037, 4-((2-(4-(4-((5-chloro-4-((2-(isopropylsulfonyl)phenyl)amino)pyrimidin-2-yl)amino)-5-isopropoxy-2-methylphenyl)piperidin-1-yl)-2-oxoethyl)amino)-2-(2,6-dioxopiperidin-3-yl)isoindoline-1,3-dione] | 151 | 50 to 100 |  |  |  |  | 
COc1cc(N2CCC(N3CCN(C(=O)CCOCCNc4cccc5c4C(=O)N(C4CCC(=O)NC4=O)C5=O)CC3)CC2)ccc1Nc1ncc(Cl)c(Nc2ccccc2P(C)(C)=O)n1 (stereo not shown) [SIAIS164007, 4-((2-(3-(4-(1-(4-((5-chloro-4-((2-(dimethylphosphoryl)phenyl)amino)pyrimidin-2-yl)amino)-3-methoxyphenyl)piperidin-4-yl)piperazin-1-yl)-3-oxopropoxy)ethyl)amino)-2-(2,6-dioxopiperidin-3-yl)isoindoline-1,3-dione] |  | 10 to 50 | 1 to 10 | 358 | 1610 | 3.8 ± 1.9 | 
COc1cc(N2CCC(N3CCN(C(=O)CNc4cccc5c4CN(C4CCC(=O)NC4=O)C5=O)CC3)CC2)ccc1Nc1ncc(Cl)c(Nc2ccccc2P(C)(C)=O)n1 (stereo not shown) [SIAIS219073, 3-(4-((2-(4-(1-(4-((5-chloro-4-((2-(dimethylphosphoryl)phenyl)amino)pyrimidin-2-yl)amino)-3-methoxyphenyl)piperidin-4-yl)piperazin-1-yl)-2-oxoethyl)amino)-1-oxoisoindolin-2-yl)piperidine-2,6-dione] |  |  |  |  |  | 1.8 ± 1 | IC50 (MOLM13 cells (FLT3-ITD); MOLM-13, MOLM13 cells, n = 2, reagent CTG, read-out: Half Inhibitory Concentration (IC50) Mean): 373 nM; IC50 ([1]; U118MG cells, 72 hours, n = 2, reagent CTG): > 20000 nM; IC50 [2]: > 20000 nM
